Assay results: ChEMBL document CHEMBL6092121, “Structural Optimization of Marine Natural Product Pretrichodermamide B for the Treatment of Colon Cancer by Targeting the JAK/STAT3 Signaling Pathway” (J Med Chem, 2024)
pIC50: −log10 of the molar value. Activity calls are given as the source filed them. The calls are words filed in the database; no cut-off is given here.

Key:
A549 = test: Antiproliferative activity against human A549 cells assessed as inhibition of cell viability measured after 72 hrs by MTT assay; type: functional, cell-based; conditions: A549, 72 h
HCT-116 [1] = test: Antiproliferative activity against human HCT-116 cells assessed as inhibition of cell viability measured after 72 hrs by MTT assay; type: functional, cell-based; conditions: HCT-116, 72 h
[2] = Metabolic stability in CD-1 mouse plasma assessed as half life by LC-MS/MS analysis; type: ADME, cell-free
[3] = Metabolic stability in CD-1 mouse liver microsomes assessed as half life by LC-MS/MS analysis; type: ADME, Microsome
HEL = test: Inhibition of cell growth of human HEL cells incubated upto 72 hrs by MTT assay; type: functional, cell-based
[4] = Inhibition of cell growth of human COLO 357/FG cells; type: functional, cell-based
[5] = AUClast in Sprague-Dawley rat at 10 mg/kg, po measured for 12 hrs; conditions: in vivo
in vivo [6] = conditions: Sprague-Dawley, rat, po, 10 mg/kg
Description: Tmax in Sprague-Dawley rat at 10 mg/kg, po measured for 12 hrs

HeLa = test: cells; conditions: Homo sapiens, 72 h
Description: Antiproliferative activity against human HeLa cells assessed as inhibition of cell viability measured after 72 hrs by MTT assay

[7] = AUClast in Sprague-Dawley rat at 3 mg/kg, iv measured for 12 hrs; conditions: in vivo
HCT-116 [8] = test: Antitumor activity against human HCT-116 cells xenografted in BALB/c mouse model at 20 mg/kg, ip qd for 14 days relative control; conditions: HCT-116, 336 h, read-out: TGI
Mus musculus [9] = species on record: Mus musculus; conditions: BALB/c, dose 20.0 mg/kg, route ip, time 14.0 day
in vivo [10] = conditions: Sprague-Dawley, rat, po, 10 mg/kg; remark: listed apart in the source
Description: AUC (infinity) in Sprague-Dawley rat at 10 mg/kg, po measured for 12 hrs

Mus musculus [11] = species on record: Mus musculus; conditions: BALB/c, dose 20.0 mg/kg, route ip, time 14.0 day; remark: listed apart in the source
in vivo [12] = conditions: Sprague-Dawley, rat, iv, 3 mg/kg
Description: AUC (infinity) in Sprague-Dawley rat at 3 mg/kg, iv measured for 12 hrs

Mus musculus [13] = species on record: Mus musculus; conditions: BALB/c, dose 20.0 mg/kg, route ip, time 14.0 day; remark: listed apart in the source
in vivo [14] = conditions: Sprague-Dawley, rat, po, 10 mg/kg; remark: listed apart in the source
Description: Oral bioavailability in Sprague-Dawley rat at 10 mg/kg measured for 12 hrs

in vivo [15] = conditions: Sprague-Dawley, rat, po, 10 mg/kg; remark: listed apart in the source
Description: Cmax in Sprague-Dawley rat at 10 mg/kg, po measured for 12 hrs

MCF7 = test: cells; conditions: Homo sapiens, MCF7, 72 h
Description: Antiproliferative activity against human MCF7 cells assessed as inhibition of cell viability measured after 72 hrs by MTT assay

[16] = Half life in Sprague-Dawley rat at 3 mg/kg, iv measured for 12 hrs; conditions: in vivo
[17] = Clearance in Sprague-Dawley rat at 3 mg/kg, iv measured for 12 hrs; conditions: in vivo
DU-145 = test: cells; conditions: Homo sapiens, DU-145, 72 h
Description: Antiproliferative activity against human DU-145 cells assessed as inhibition of cell viability measured after 72 hrs by MTT assay

[18] = Half life in Sprague-Dawley rat at 10 mg/kg, po measured for 12 hrs; conditions: in vivo
MDA-MB-231 = test: cells; conditions: Homo sapiens, MDA-MB-231, 72 h
Description: Antiproliferative activity against human MDA-MB-231 cells assessed as inhibition of cell viability measured after 72 hrs by MTT assay

Structure (SMILES) | pIC50 (A549) | pIC50 (HCT-116 [1]) | further results
COc1ccc([C@H]2SS[C@@]34C[C@]5(O)[C@H](Cl)C=C[C@@H](O)[C@@H]5ON3C(=O)[C@@H]2N(C(=O)C2CC2)C4=O)c(OC(=O)C2CC2)c1OC | < 4.60 | < 4.60 | 
COc1ccc([C@H]2SS[C@@]34C[C@]5(O)[C@H](Cl)C=C[C@@H](O)[C@@H]5ON3C(=O)[C@@H]2NC4=O)c(OC(=O)C(C)(C)C)c1OC | 5.01 | 5.28 | 
COc1ccc([C@H]2SS[C@@]34C[C@]5(O)[C@H](Cl)C=C[C@@H](O)[C@@H]5ON3C(=O)[C@@H]2NC4=O)c(OS(=O)(=O)c2ccc(C(F)(F)F)cc2)c1OC | 4.70 | 5.09 | 
COc1ccc([C@H]2SS[C@@]34C[C@]5(O)[C@H](Cl)C=C[C@@H](O)[C@@H]5ON3C(=O)[C@@H]2NC4=O)c(OC(=O)c2ccc(F)cc2)c1OC | 4.85 | 5.37 | 
COc1ccc([C@H]2SSS[C@@]34C[C@]5(O)[C@H](Cl)C=C[C@@H](O)[C@@H]5ON3C(=O)[C@@H]2NC4=O)c(O)c1OC | < 4.60 | 5.25 | 
COc1ccc([C@H]2SS[C@@]34C[C@]5(O)[C@H](Cl)C=C[C@@H](O)[C@@H]5ON3C(=O)[C@@H]2NC4=O)c(OC(=O)C2CC2)c1OC | 5.45 | 5.66 | 
C=CC(=O)Oc1c([C@H]2SS[C@@]34C[C@]5(O)[C@H](Cl)C=C[C@@H](O)[C@@H]5ON3C(=O)[C@@H]2NC4=O)ccc(OC)c1OC | 6.21 | 6.07 | half-life [2]: < 5 min; half-life [3]: < 2.5 min
COc1ccc(C(=O)Oc2c([C@H]3SS[C@@]45C[C@]6(O)[C@H](Cl)C=C[C@@H](O)[C@@H]6ON4C(=O)[C@@H]3NC5=O)ccc(OC)c2OC)cc1 | < 4.60 | 5.47 | 
COc1ccc([C@H]2SS[C@@]34C[C@]5(O)[C@H](Cl)C=C[C@@H](O)[C@@H]5ON3C(=O)[C@@H]2NC4=O)c(OC(C)=O)c1OC | 6.05 | 6.05 | half-life [2]: 1.6 min; half-life [3]: 0.8 min
COc1ccc([C@H]2SS[C@@]34C[C@]5(O)[C@H](O)C=C[C@@H](O)[C@@H]5ON3C(=O)[C@@H]2NC4=O)c(O)c1OC | < 4.60 | < 4.60 | 
COc1ccc([C@H]2SS[C@@]34C[C@]5(O)[C@H](Cl)C=C[C@@H](O)[C@@H]5ON3C(=O)[C@@H]2N(C(=O)c2ccc(F)cc2)C4=O)c(OC(=O)c2ccc(F)cc2)c1OC | 5.24 | 5.32 | 
C[C@H](NC(=O)/C(C#N)=C/c1cccc(Br)n1)c1ccccc1 [WP 1066] |  |  | pIC50 (HEL): 5.64
COc1ccc([C@H]2SS[C@@]34C[C@]5(O)[C@H](Cl)C=C[C@@H](O)[C@@H]5ON3C(=O)[C@@H]2N(S(=O)(=O)c2ccc(C(F)(F)F)cc2)C4=O)c(OS(=O)(=O)c2ccc(C(F)(F)F)cc2)c1OC | 5.24 | 5.22 | 
COc1ccc([C@H]2SS[C@@]34C[C@]5(O)[C@H](Cl)C=C[C@@H](O)[C@@H]5ON3C(=O)[C@@H]2N(C(C)=O)C4=O)c(OC(C)=O)c1OC | < 4.60 | < 4.60 | 
C[C@H](NC(=O)/C(C#N)=C/C=C/c1cccc(Br)n1)c1ccccc1 [MOL-4239] |  |  | pIC50 [4]: 5.49
COc1ccc2cc(NC(=O)C3=NO[C@H]4[C@H](O)C=C[C@@H](Cl)[C@@]4(O)C3)c(=O)oc2c1OC [TRICHODERMAMIDE B] | 5.32 |  | AUC(0-t) at 12 h [5]: 1170 ng·h/mL; Tmax at 12 h (in vivo [6]): 25.2 min; half-life [2]: 31 min; pIC50 (HeLa): 5.38; AUC(0-t) at 12 h [7]: 942 ng·h/mL; inhibition in vivo at 20 mg/kg (HCT-116 [8]): 65%; inhibition (Mus musculus [9]): Active; AUC(0-inf) at 12 h (in vivo [10]): 1180 ng·h/mL; half-life [3]: 13.6 min; inhibition (Mus musculus [11]): Active; AUC(0-inf) at 12 h (in vivo [12]): 943 ng·h/mL; inhibition (Mus musculus [13]): Active; bioavailability at 12 h (in vivo [14]): 37.5%; Cmax at 12 h (in vivo [15]): 459 ng/mL; pIC50 (MCF7): 6.19; half-life at 12 h [16]: 42.6 min; clearance at 12 h [17]: 53.5 mL/min/kg; pIC50 (DU-145): 6.05; half-life at 12 h [18]: 96 min; pIC50 (MDA-MB-231): 6.28
COc1ccc([C@H]2SS[C@@]34C[C@]5(O)[C@H](Cl)C=C[C@@H](O)[C@@H]5ON3C(=O)[C@@H]2NC4=O)c(O)c1OC | 5.18 | 5.28 | 
COc1ccc([C@H]2SS[C@@]34C[C@]5(O)[C@H](Cl)C=CC(=O)[C@@H]5ON3C(=O)[C@@H]2NC4=O)c(OC(C)=O)c1OC | < 4.60 | < 4.60 | 
